The results in this text go back to publication PMC11855827, “High-Throughput Screening of Five Compound Libraries for Anthelmintic Activity and Toxicity Leads to the Discovery of Two Flavonoid Compounds” (International Journal of Molecular Sciences, 2025).

Values joined by “and” are separate entries in the source; they are usually repeats but may differ in a detail not shown here. Identical values can stand only once. Like-named read-outs stand apart in the source and are kept apart here.

This test concerns C. elegans.
[1] abbreviates: Table S2, C. elegans SS assay, 110 μM, 0 h, averages of 4 data points.
Where [2] appears, read: Table S2, C. elegans SS assay, 110 μM, 24 h, averages of 4 data points.

For the molecule `COc1cc2oc3cc(O)c(OC)c(CC=C(C)C)c3c(=O)c2c(O)c1CC=C(C)C` [beta‐Mangostin], under setting [1], the “Percentage of motility inhibition 0 h” value stood at 30%. The “Percentage of motility inhibition 24 h” value under setting [2] stood at 0%.

On to `C=C(C)[C@H]1C=C[C@@](C)(O)CC1` [cis-Isolimonenol], for which, under setting [1], the “Percentage of motility inhibition 0 h” value worked out at 2%. Further, the “Percentage of motility inhibition 24 h” value under setting [2] is given as 30%.

On to `CC/C=C\CC1=C(C)CCC1=O` [cis‐Jasmone], for which the “Percentage of motility inhibition 0 h” value under setting [1] is 10%. For the same molecule, the “Percentage of motility inhibition 24 h” value under setting [2] is 9%. Regarding `S=C=Nc1ccc(N=C=S)cc1` [p‐Phenylene diisothiocyanate], the “Percentage of motility inhibition 0 h” value under setting [1] was determined as 2%. Moreover, the “Percentage of motility inhibition 24 h” value under setting [2] is on record as 9%. Taken in the same sequence, the figures for `CNCC(O)c1ccc(O)cc1` (centres unmarked) [p‐Synephrine] were 13% and 0%. `C/C(=C\CNc1ncnc2c1ncn2[C@@H]1O[C@H](CO)[C@@H](O)[C@H]1O)CO` [trans‐Zeatinriboside]: the “Percentage of motility inhibition 0 h” value under setting [1] came to 9%. In addition, the “Percentage of motility inhibition 24 h” value under setting [2] was 0%. Taken in the same sequence, the figures for `C/C1=C\CC/C(C)=C/CC(C)(C)/C=C/C1` [α-Humulene] were 11% and 55%. The like results for `Cc1c(C)c2c(c(C)c1O)CC[C@@](C)(CCC[C@H](C)CCC[C@H](C)CCCC(C)C)O2` [α-Vitamin E] were, in that order, 53% and 11%. Consider `CC1=C(/C=C/C(C)=C/C=C/C(C)=C/C=C/C=C(C)/C=C/C=C(\C)C=O)C(C)(C)CCC1` [β-Apo-8'-carotenal], for which the “Percentage of motility inhibition 0 h” value under setting [1] is listed as 12%. For the same molecule, the “Percentage of motility inhibition 24 h” value under setting [2] is given as 1%. The like results for `C=C(CCC=C(C)C)[C@@H]1CC=C(C)CC1` [β-Bisabolene] were, in that order, 8% and 57%.

Take `CC1=C(CO)C(C)(C)CCC1` [β-Cyclogeraniol]: the “Percentage of motility inhibition 0 h” value under setting [1] worked out at 15%. In addition, under setting [2], the “Percentage of motility inhibition 24 h” value amounted to 48%. With `C=C[C@]1(C)CC[C@@H](C(=C)C)C[C@H]1C(=C)C` [β-Elemene], the “Percentage of motility inhibition 0 h” value under setting [1] is 9% and 7%. For `COc1ccc(-c2oc3c4c(cc(O)c3c(=O)c2O)OC(C)(C)CC4)cc1` [β‐Anhydroicaritin], under setting [1], the “Percentage of motility inhibition 0 h” value was 5%. Under setting [2], the “Percentage of motility inhibition 24 h” value is 16%. As for `N[C@@H](CCl)C(=O)O` [β‐Chloro‐L‐alanine], the “Percentage of motility inhibition 0 h” value under setting [1] worked out at 27%. Under setting [2], the “Percentage of motility inhibition 24 h” value turned out to be 7%. In the case of (+)-Catechin hydrate, the “Percentage of motility inhibition 0 h” value under setting [1] is 12% and 8%.

In the case of (+)‐Sparteine, the “Percentage of motility inhibition 0 h” value under setting [1] worked out at 5%. The “Percentage of motility inhibition 24 h” value under setting [2] is given as 13%.

In the case of (+)‐Sparteine (sulfate pentahydrate), the “Percentage of motility inhibition 0 h” value under setting [1] is recorded as 0%. Besides, the “Percentage of motility inhibition 24 h” value under setting [2] stood at 0%. (-)-Huperzine A: under setting [2], the “Percentage of motility inhibition 24 h” value is 7% and 15%.

For (±)-Huperzine A, the “Percentage of motility inhibition 0 h” value under setting [1] amounted to 0%. In addition, the “Percentage of motility inhibition 24 h” value under setting [2] was 16%. The like results for (±)‐10‐Hydroxycamptothecin were, in that order, 0% and 0%.

Take (±)‐Naringenin: the “Percentage of motility inhibition 0 h” value under setting [1] turned out to be 0%. Further, the “Percentage of motility inhibition 24 h” value under setting [2] was found to be 18%. Regarding (‐)‐Alkannin, the “Percentage of motility inhibition 0 h” value under setting [1] is listed as 12%. The “Percentage of motility inhibition 24 h” value under setting [2] is listed as 7%. Taken in the same sequence, the figures for (‐)‐Epicatechin gallate were 5% and 8%. With (‐)‐Epigalloca techin, the “Percentage of motility inhibition 0 h” value under setting [1] was found to be 3%. Under setting [2], the “Percentage of motility inhibition 24 h” value is given as 0%.

On to (‐)‐Gallocatechin gallate, for which, under setting [1], the “Percentage of motility inhibition 0 h” value was determined as 60%. The “Percentage of motility inhibition 24 h” value under setting [2] stood at 5%. Consider (‐)‐Sparteine, for which the “Percentage of motility inhibition 0 h” value under setting [1] was 0%. Moreover, the “Percentage of motility inhibition 24 h” value under setting [2] was found to be 4%.

Turning to (−)-Myrtenal, the “Percentage of motility inhibition 0 h” value under setting [1] came to 21%. Further, the “Percentage of motility inhibition 24 h” value under setting [2] is 14%. As for Alisol B 23-acetate, under setting [1], the “Percentage of motility inhibition 0 h” value came to 0%. Moreover, the “Percentage of motility inhibition 24 h” value under setting [2] came to 2%. As for Alpinetin, the “Percentage of motility inhibition 0 h” value under setting [1] was 1%. For the same molecule, under setting [2], the “Percentage of motility inhibition 24 h” value came to 14%. On to Amarogentin, for which the “Percentage of motility inhibition 0 h” value under setting [1] is given as 2%. Also, the “Percentage of motility inhibition 24 h” value under setting [2] worked out at 8%. The like results for Aprotinin were, in that order, 4% and 9%. Take Asiaticoside: the “Percentage of motility inhibition 0 h” value under setting [1] worked out at 6%. The “Percentage of motility inhibition 24 h” value under setting [2] is 0%. Take Astragaloside I: under setting [1], the “Percentage of motility inhibition 0 h” value was 13%. The “Percentage of motility inhibition 24 h” value under setting [2] is listed as 23%. Take Avermectin B1 [reference compound]: the “Inhibition (%) 110 μM (0 h)” value turned out to be 81 ± 1% and the “Inhibition (%) 110 μM (24 h)” value came to 42 ± 1%. Further, the “Percentage of motility inhibition 24 h” value under setting [2] came to 41%.

For Bacopaside II, the “Percentage of motility inhibition 0 h” value under setting [1] amounted to 7%. Besides, under setting [2], the “Percentage of motility inhibition 24 h” value was 9%. Taken in the same sequence, the figures for Bavachinin were 0% and 2%. The like results for Benzalkonium chloride were, in that order, 50% and 58%. On to Brusatol, for which, under setting [1], the “Percentage of motility inhibition 0 h” value was 48%. Under setting [2], the “Percentage of motility inhibition 24 h” value was determined as 37%. Taken in the same sequence, the figures for Bulleyaconitine A were 26% and 26%. The like results for Capreomycin (sulfate) were, in that order, 12% and 0%.

Capsaicin β‐D‐glucopyrano side: for the setting “110 µM”, the “Percentage of motility inhibition 0 h” value was 3% and the “Percentage of motility inhibition 24 h” value is recorded as 0%. With Clinodiside A, the “Percentage of motility inhibition 0 h” value under setting [1] was 1%. The “Percentage of motility inhibition 24 h” value under setting [2] was 0%. Taken in the same sequence, the figures for Colistin (sulfate) were 14% and 0%. Consider Corylin, for which, under setting [1], the “Percentage of motility inhibition 0 h” value amounted to 25%. Also, under setting [2], the “Percentage of motility inhibition 24 h” value stood at 15%.

As for Cucurbitacin B, the “Percentage of motility inhibition 0 h” value under setting [1] came to 5%. The “Percentage of motility inhibition 24 h” value under setting [2] was found to be 0%. The like results for Cycleanine were, in that order, 4% and 4%. As for Dictamine, where the note is “110 µM”, the “Percentage of motility inhibition 0 h” value is on record as 0% and the “Percentage of motility inhibition 24 h” value is 20%. On to Diniconazole, for which the “Percentage of motility inhibition 0 h” value under setting [1] came out at 19%. Besides, under setting [2], the “Percentage of motility inhibition 24 h” value was determined as 5%. Regarding Dryocrassin ABBA, under setting [1], the “Percentage of motility inhibition 0 h” value came to 12%. Further, the “Percentage of motility inhibition 24 h” value under setting [2] turned out to be 18%. Turning to Echinocystic acid, the “Percentage of motility inhibition 0 h” value under setting [1] is 45%. The “Percentage of motility inhibition 24 h” value under setting [2] stood at 35%.
